Consider 42 compounds from US20230150981A1, “N-HETEROARYLALKYL-2-(HETEROCYCLYL AND HETEROCYCLYLMETHYL) ACETAMIDE DERIVATIVES AS SSTR4 AGONISTS” (Takeda Pharmaceutical Compnay Limited, priority 2020, published 2023).

T1 sequence (P31391 whole entry): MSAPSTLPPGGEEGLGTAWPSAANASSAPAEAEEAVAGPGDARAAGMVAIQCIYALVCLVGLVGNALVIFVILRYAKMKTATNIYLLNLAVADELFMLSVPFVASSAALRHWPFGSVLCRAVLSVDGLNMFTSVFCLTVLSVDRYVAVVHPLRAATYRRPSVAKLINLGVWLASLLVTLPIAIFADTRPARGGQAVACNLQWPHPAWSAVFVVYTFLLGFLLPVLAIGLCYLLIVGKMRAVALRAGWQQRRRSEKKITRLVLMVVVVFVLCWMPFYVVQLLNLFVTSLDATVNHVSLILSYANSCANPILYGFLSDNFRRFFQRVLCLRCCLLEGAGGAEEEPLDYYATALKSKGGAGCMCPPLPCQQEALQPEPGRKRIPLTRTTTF

The assay has as its target T1, SSTR4 (Homo sapiens, UniProt P31391).
T1 construct: host or cells: CHO-K1
In words: Inhibition of forskolin stimulated cAMP in CHO-K1 cells overexpressing SSTR4. It is filed as cell-based. The note with it: read-out: SSTR4 Activity pEC50 (converted). The method, then:
Inhibition of Forskolin Stimulated cAMP in Cells Overexpressing SSTR4
This cell-based assay measures the ability of compounds to inhibit forskolin stimulated cAMP in CHO-K1 cells overexpressing SSTR4. CHO-K1 cells overexpressing SSTR4 (CHO-SSTR4) are purchased from DiscoveRx (product code 95-0059C2). The CHO-SSTR4 cells are maintained in F12K media with 10% Fetal Bovine Serum (Hyclone), 1% Pen/Strep (Life Technologies), and 800 μg/mL G418 (Life Technologies). To perform the assay, 3000 cells are plated per well in white 384-well plate (Corning 3570) in 50 μL complete media and the cells are allowed to attach for 16 hours in a 37° C., 5% CO2 incubator. The next day, the culture media is removed from the cells and the cells are washed (added then removed) with Krebs Ringer Buffer (ZenBio, KRB-1000 mL). Test compounds are suspended in DMSO and diluted in stimulation buffer: Krebs Ringer Buffer plus 0.5% BSA (Roche), 300 μM IBMX (Sigma), and 350 nM forskolin (Sigma). The cells are incubated in 10 μL compound/stimulation buffer for 30 minutes at room temperature. Cellular cAMP levels are detected with a HTRF LANCE Ultra cAMP kit (Perkin Elmer, catalog number TRF0264).
The assay is performed in accordance with the manufacturer's instructions. Five μL of diluted Eu-W8044 labeled streptavidin (dilution: 1:50 in cAMP Detection Buffer) is added to each well. Then 5 μL of diluted biotin cAMP (dilution: 1:150 in cAMP Detection Buffer) is added to each well. The plates are covered and allowed to incubate for 60 minutes at room temperature on a shaker. HTRF (665 nm/615 nm) is read on a Perkin Elmer ENVISION plate reader. The pEC50 values are generated using Activity Base for Screening Data Management.
With `Cc1cccnc1OCC(C)(C)NC(=O)[C@H](C)[C@@H]1CCCN1C` (racemic) [Example 66, (R)-N-(2-methyl-1-((3-methylpyridin-2-yl)oxy)propan-2-yl)-2-((S)-1-methylpyrrolidin-2-yl)propanamide and (S)-N-(2-methyl-1-((3-methylpyridin-2-yl)oxy)propan-2-yl)-2-((R)-1-methylpyrrolidin-2-yl)propanamide], the EC50 is 15.8 nM.

With `Cc1cccnc1OCC(C)(C)NC(=O)[C@@H](C)[C@@H]1CCCN1C` (racemic) [Example 67, (S)-N-(2-methyl-1-((3-methylpyridin-2-yl)oxy)propan-2-yl)-2-((S)-1-methylpyrrolidin-2-yl)propanamide and (R)-N-(2-methyl-1-((3-methylpyridin-2-yl)oxy)propan-2-yl)-2-((R)-1-methylpyrrolidin-2-yl)propanamide], the EC50 was 1.58 nM.

With `COc1ccccc1C(C)(C)NC(=O)[C@@H](C)CN1CCCC1` (single isomer, unassigned) [Example 76], the EC50 was 631 nM.

`Cc1cccnc1OCC1(NC(=O)[C@@H](C)[C@H]2CCCN2C)CC1` (single isomer, unassigned) [Example 126]: the EC50 is 398 nM.

For `CN1CCC[C@H]1CC(=O)NC(C)(C)[C@H]1CCc2ccccc2O1` (single isomer, unassigned) [Example 129], the EC50 is 398 nM.

On to `CN1CCC[C@@H]1CC(=O)NC(C)(C)[C@H]1CCc2ccccc2O1` (single isomer, unassigned) [Example 130], for which the EC50 is 316 nM.

In the case of `C[C@H](CN1CCC1)C(=O)NC(C)(C)c1ccccc1Cl` (single isomer, unassigned) [Example 133], the EC50 is 200 nM.

Turning to `C[C@@H](CN1CCCC1)C(=O)NC(C)(C)c1ccccc1Cl` (single isomer, unassigned) [Example 137], the EC50 was 316 nM.

Consider `COc1ccc(C(C)(C)NC(=O)[C@@H](C)CN2CCC2)cc1` (single isomer, unassigned) [Example 139], for which the EC50 is 1260 nM.

`Cc1ccccc1C(C)(C)NC(=O)[C@@H](C)CN1CCC1` (single isomer, unassigned) [Example 141]: the EC50 is 398 nM.

As to `Cc1c(F)cccc1C(C)(C)NC(=O)[C@@H](C)CN1CCC1` (single isomer, unassigned) [Example 143], the EC50 is 200 nM.

As for `Cc1cccc(C(C)(C)NC(=O)[C@H](C)CN2CCC2)c1Cl` (single isomer, unassigned) [Example 144], the EC50 was 100 nM.

In the case of `Cc1ccc(C(C)(C)NC(=O)[C@H](C)CN2CCC2)cc1` (single isomer, unassigned) [Example 148], the EC50 is 501 nM.

`C[C@H](CN1CCC1)C(=O)NC(C)(C)c1cccc(F)c1` (single isomer, unassigned) [Example 152]: the EC50 is 1000 nM.

In the case of `C[C@H](CN1CCC1)C(=O)NC(C)(C)c1ccc(Cl)cc1` (single isomer, unassigned) [Example 154], the EC50 was 1260 nM.

On to `C[C@@H](CN1CCC1)C(=O)NC(C)(C)c1ccccc1F` (single isomer, unassigned) [Example 157], for which the EC50 was 2510 nM.

In the case of `O=C(CCN1CCC1)N[C@@H](c1cc(F)ccc1F)C(F)F` (single isomer, unassigned) [Example 168], the EC50 was more than 5010 nM.

As for `COc1c(F)cccc1C(C)(C)NC(=O)[C@@H](C)CN1CCC1` (single isomer, unassigned) [Example 172], the EC50 was 251 nM.

On to `Cc1ccc([C@@H](CF)NC(=O)CCN2CCC2)cc1` (single isomer, unassigned) [Example 174], for which the EC50 was more than 10000 nM.

As for `Cc1cccnc1OCC1(NC(=O)[C@@H](C)[C@@H]2CCCN2C)CC1` (single isomer, unassigned) [Example 176], the EC50 is 126 nM.

On to `Cc1cccnc1OCC1(NC(=O)[C@H](C)[C@H]2CCCN2C)CC1` (single isomer, unassigned) [Example 177], for which the EC50 was more than 10000 nM.

As to `CC[C@@H](CN1CCC1)C(=O)NC(C)(C)c1cccc(F)c1` (single isomer, unassigned) [Example 185], the EC50 is 79.4 nM.

For the compound `CC[C@H](CN1CCC1)C(=O)NC(C)(C)c1ccc(C)cc1` (single isomer, unassigned) [Example 186], the EC50 was 200 nM.

Turning to `O=C(CCN1CCCC1)N[C@@H](c1cccc(Cl)c1)C(F)F` (single isomer, unassigned) [Example 197], the EC50 is 2000 nM.

As for `CC[C@H](CN1CCC1)C(=O)NC(C)(C)c1ccccc1F` (single isomer, unassigned) [Example 199], the EC50 was more than 10000 nM.

With `C[C@@H](CN1CCC1)C(=O)N[C@@H](CF)c1ccccc1` (single isomer, unassigned) [Example 206], the EC50 is 200 nM.

`Cn1nc(C(C)(C)NC(=O)CC23CCCN2CCC3)c2ccccc21` [Example 10, N-(2-(1-methyl-1H-indazol-3-yl)propan-2-yl)-2-(tetrahydro-1H-pyrrolizin-7a(5H)-yl)acetamide]: the EC50 was 200 nM.

In the case of `CN1CCCC1CC(=O)NC(C)(C)c1cccc(Cl)c1` (stereo not drawn) [Example 12, N-(2-(3-chlorophenyl)propan-2-yl)-2-(1-methylpyrrolidin-2-yl)acetamide], the EC50 was 126 nM.

On to `CN1Cc2ccccc2C[C@H]1CC(=O)NC(C)(C)c1nccc2ccccc12` [Example 20, (S)-N-(2-(isoquinolin-1-yl)propan-2-yl)-2-(2-methyl-1,2,3,4-tetrahydroisoquinolin-3-yl)acetamide], for which the EC50 is 2000 nM.

Consider `CN1CCCC1CC(=O)NC(C)(C)c1nccc2occc12` (stereo not drawn) [Example 25, N-(2-(furo[3,2-c]pyridin-4-yl)propan-2-yl)-2-(1-methylpyrrolidin-2-yl)acetamide], for which the EC50 is 79.4 nM.

With `CN1CCCCC1CC(=O)NC(C)(C)c1nccc2c1cnn2C` (stereo not drawn) [Example 26, N-(2-(1-methyl-1H-pyrazolo[4,3-c]pyridin-4-yl)propan-2-yl)-2-(1-methylpiperidin-2-yl)acetamide], the EC50 was 2510 nM.

Regarding `CN1CCCCC1CC(=O)NC(C)(C)COc1ncccc1C(F)(F)F` (stereo not drawn) [Example 29, N-(2-methyl-1-((3-(trifluoromethyl)pyridin-2-yl)oxy)propan-2-yl)-2-(1-methylpiperidin-2-yl)acetamide], the EC50 is 100 nM.

Take `C[C@H](NC(=O)C[C@@H]1CCCN1C)c1ccc(Cl)cc1` [Example 31, N-((S)-1-(4-chlorophenyl)ethyl)-2-((S)-1-methylpyrrolidin-2-yl)acetamide]: the EC50 is 316 nM.

For `C[C@H](NC(=O)C[C@@H]1CCCN1C)c1ccc(F)cc1` [Example 32, N-((S)-1-(4-fluorophenyl)ethyl)-2-((S)-1-methylpyrrolidin-2-yl)acetamide], the EC50 was 501 nM.

Turning to `CN1CCC[C@H]1CC(=O)NC(C)(C)c1cc(Cl)ccc1Cl` [Example 33, (S)-N-(2-(2,5-dichlorophenyl)propan-2-yl)-2-(1-methylpyrrolidin-2-yl)acetamide], the EC50 was 79.4 nM.

For `C[C@H](NC(=O)C[C@H]1CCCN1C)c1ccc(Cl)cc1` [Example 36, N-((S)-1-(4-chlorophenyl)ethyl)-2-((R)-1-methylpyrrolidin-2-yl)acetamide], the EC50 is 501 nM.

Regarding `C[C@H](NC(=O)C[C@H]1CCCN1C)c1ccc(F)cc1` [Example 37, N-((S)-1-(4-fluorophenyl)ethyl)-2-((R)-1-methylpyrrolidin-2-yl)acetamide], the EC50 is 1000 nM.

As for `CCN1CCC[C@H]1CC(=O)NC(C)(C)COc1ncccc1C(F)(F)F` [Example 51, (S)-2-(1-ethylpyrrolidin-2-yl)-N-(2-methyl-1-((3-(trifluoromethyl)pyridin-2-yl)oxy)propan-2-yl)acetamide], the EC50 was 126 nM.

For the compound `CC(C)(COc1ncccc1C(F)(F)F)NC(=O)C[C@@H]1CCCN1CCF` [Example 52, (S)-2-(1-(2-fluoroethyl)pyrrolidin-2-yl)-N-(2-methyl-1-((3-(trifluoromethyl)pyridin-2-yl)oxy)propan-2-yl)acetamide], the EC50 is 501 nM.

As for `CC(C)(COc1ncccc1C(F)(F)F)NC(=O)C[C@@H]1CCCN1C1CC1` [Example 53, (S)-2-(1-cyclopropylpyrrolidin-2-yl)-N-(2-methyl-1-((3-(trifluoromethyl)pyridin-2-yl)oxy)propan-2-yl)acetamide], the EC50 is 63.1 nM.

Turning to `Cc1cccnc1OCC1(NC(=O)C[C@@H]2CCCN2C)CC1` [Example 54, (S)-N-(1-(((3-methylpyridin-2-yl)oxy)methyl)cyclopropyl)-2-(1-methylpyrrolidin-2-yl)acetamide], the EC50 is 251 nM.

Consider `Cc1cccnc1OCC1(NC(=O)C[C@@H]2CCCN2C)CCCC1` [Example 56, (S)-N-(1-(((3-methylpyridin-2-yl)oxy)methyl)cyclopentyl)-2-(1-methylpyrrolidin-2-yl)acetamide], for which the EC50 was 200 nM.
